In patent US4965280A, “Antifungal carbinols” (E. I. Du Pont de Nemours and Company, priority 1989, dated 1990):
Converted amounts (≈) assume the structure as drawn. Read-outs that look alike come from different tables or passages of the source.

Columns and labels:
[1] = test system: Candida albicans ATCC 11651; experiment: In vivo systemic Candida infection in mice, primary assay; set-up: species or system Candida albicans; CF-1 female mice; conditions: Candida albicans, 150 mg/kg per day, read-out: % Survival
Summary of the method: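 CF-1 female mice (20 g, 10 per group) were infected IV with 0.2 ml of 1×10^7/ml C. albicans ATCC 11651, then given test compound subcutaneously at 50 or 150 mg/kg/day at 1 and 6 h post-infection and once daily for three more days. Survival was followed for 21 days against infected untreated mice; ≥70% protection at 14 days was scored active.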

Venturia inaequalis = experiment: Example A apple scab; assay type: in vivo; conditions: 100 PPM, read-out: disease control rating, Ex. A
Summary of the method: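 Apple seedlings receive a run-off spray of compound suspended at 100 or 20 ppm. The spray liquid is purified water holding 250 ppm TREM 014, a polyhydric alcohol ester surfactant, plus acetone at 6% of final volume as the solvent.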

[2] = test system: Cercosporidium personatum; experiment: Example B Peanut Late Leafspot; assay type: in vivo; conditions: Nothopassalora personata; 100 PPM; read-out: disease control rating, Ex. B
Summary of the method: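 Each compound is first taken up in acetone, which makes up 6% of the final spray volume. It is then suspended in purified water with 250 ppm TREM 014 at 100 or 20 ppm. Seedlings of peanut are sprayed until run-off.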

Pyricularia oryzae = experiment: whole plant or invertebrate; assay type: in vivo; conditions: Pyricularia oryzae, 120 h, read-out: disease control rating, Ex. E, 100 PPM
Rhizoctonia solani = experiment: Example F rice sheath blight; assay type: in vivo; conditions: Rhizoctonia solani, 144 h, 100 PPM; read-out: disease control rating, Ex. F
Summary of the method: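 Rice seedlings receive a run-off spray of compound suspended at 100 or 20 ppm. The carrier is purified water containing 250 ppm of a polyhydric alcohol ester surfactant, with acetone making up 6% of the final volume.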

Puccinia recondita = experiment: Example G wheat leaf rust; assay type: in vivo; conditions: 100 PPM, read-out: disease control rating, Ex. G
Sclerotium rolfsii = experiment: Example M southern blight; assay type: in vivo; conditions: Agroathelia rolfsii, 336 h; 5 kg/ha; read-out: disease control rating, Ex. M
Description: […] Seeds and soil were then inoculated with a mixture of sand, cereal and mycelium of the fungus Sclerotium rolfsii, causal agent of sourthern blight, and incubated in a growth chamber at 30° C. for 14 days. Disease ratings were then made.

BARNYARDGRASS = experiment: Test C rice paddy; assay type: in vivo, Echinochloa crusgalli; conditions: Echinochloa crus-galli, 504 h, 21 days, read-out: plant response; for pest or weed control at 64 g/ha: 0064 G/HA; for pest or weed control at 125 g/ha: 0125 G/HA; for pest or weed control at 250 g/ha: 0250 G/HA; for pest or weed control at 500 g/ha: 0500 G/HA
Summary of the method: (§1)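 Greenhouse paddy pots of saturated silt loam received rice seedlings at the 2.0–2.5 leaf stage, transplanted weed seedlings or sprouted tubers, and barnyardgrass seed. After flooding to 3 cm at 3–4 days, solvent-formulated test chemical went straight into the water within 24 h.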

ARROWHEAD = experiment: Test C rice paddy; assay type: in vivo, Sagittaria spp.; conditions: Sagittaria, 504 h, 21 days, read-out: plant response; for pest or weed control at 64 g/ha: 0064 G/HA; for pest or weed control at 125 g/ha: 0125 G/HA; for pest or weed control at 250 g/ha: 0250 G/HA; for pest or weed control at 500 g/ha: 0500 G/HA
Summary of the method: as §1

SCIRPUS = experiment: Test C rice paddy; assay type: in vivo, Scirpus paludosus; conditions: Bolboschoenus maritimus, 504 h, 21 days, read-out: plant response; for pest or weed control at 64 g/ha: 0064 G/HA; for pest or weed control at 125 g/ha: 0125 G/HA; for pest or weed control at 250 g/ha: 0250 G/HA; for pest or weed control at 500 g/ha: 0500 G/HA
Summary of the method: as §1

WATER PLAINTAIN = experiment: Test C rice paddy; assay type: in vivo, Alisma trivale; conditions: 504 h, 21 days, read-out: plant response; for pest or weed control at 64 g/ha: 0064 G/HA; for pest or weed control at 125 g/ha: 0125 G/HA; for pest or weed control at 250 g/ha: 0250 G/HA; for pest or weed control at 500 g/ha: 0500 G/HA
Summary of the method: as §1

RICE JAP EFF = experiment: Test C rice paddy; assay type: in vivo, Japonica rice; conditions: Oryza sativa, 504 h, 21 days, read-out: plant response; for pest or weed control at 64 g/ha: 0064 G/HA; for pest or weed control at 125 g/ha: 0125 G/HA; for pest or weed control at 250 g/ha: 0250 G/HA; for pest or weed control at 500 g/ha: 0500 G/HA
Summary of the method: as §1

[3] = test system: Aspergillus fumigatus ATCC 28214; experiment: In vitro antifungal MIC, microtiter broth dilution; conditions: Aspergillus fumigatus, ATCC28214, 24 h, read-out: MIC values, A. fumigatus, 30°, 24 hours

`C=C(c1ccccc1Cl)C(O)(Cn1cncn1)c1ccc(F)cc1F` (stereo not shown) [Example 35] showed a responders at 150 mg/kg ([1]; ATCC11651, 168 h, day 7) of 100%, a responders at 150 mg/kg ([1]; ATCC11651, 336 h, day 14) of 100% and a responders at 150 mg/kg ([1]; ATCC11651, 504 h, day 21) of 90%. For the same molecule, the pest or weed control at 100 ppm (Venturia inaequalis) was 100%, the pest or weed control at 100 ppm [2] was 100% and the pest or weed control at 100 ppm (Pyricularia oryzae) was 0%. It also gave a pest or weed control at 100 ppm (Rhizoctonia solani) of 100%, a pest or weed control at 100 ppm (Puccinia recondita) of 96% and a pest or weed control at 5000 g/ha (Sclerotium rolfsii) of 0%. The pest or weed control at 64 g/ha (BARNYARDGRASS) was 70%, the pest or weed control at 125 g/ha (BARNYARDGRASS) was 100% and the pest or weed control at 250 g/ha (BARNYARDGRASS) was 80%. It also gave a pest or weed control at 500 g/ha (BARNYARDGRASS) of 100%, a pest or weed control at 1000 g/ha (BARNYARDGRASS) of 95% and a pest or weed control at 64 g/ha (ARROWHEAD) of 0%. The pest or weed control at 125 g/ha (ARROWHEAD) was 0%, the pest or weed control at 250 g/ha (ARROWHEAD) was 40% and the pest or weed control at 500 g/ha (ARROWHEAD) was 50%. The pest or weed control at 1000 g/ha (ARROWHEAD) was 95%, the pest or weed control at 64 g/ha (SCIRPUS) was 0% and the pest or weed control at 125 g/ha (SCIRPUS) was 0%. The pest or weed control at 250 g/ha (SCIRPUS) was 0%, the pest or weed control at 500 g/ha (SCIRPUS) was 0% and the pest or weed control at 1000 g/ha (SCIRPUS) was 50%. For the same molecule, the pest or weed control at 64 g/ha (WATER PLAINTAIN) was 0%, the pest or weed control at 125 g/ha (WATER PLAINTAIN) was 0% and the pest or weed control at 250 g/ha (WATER PLAINTAIN) was 40%. The pest or weed control at 500 g/ha (WATER PLAINTAIN) was 40%, the pest or weed control at 1000 g/ha (WATER PLAINTAIN) was 60% and the pest or weed control at 64 g/ha (RICE JAP EFF) was 0%. For the same molecule, the pest or weed control at 125 g/ha (RICE JAP EFF) was 0%, the pest or weed control at 250 g/ha (RICE JAP EFF) was 0% and the pest or weed control at 500 g/ha (RICE JAP EFF) was 0%. The pest or weed control at 1000 g/ha (RICE JAP EFF) was 20% and the MIC [3] was 0.1 µg/mL (≈ 0.276 µM).
Molecule `C=C(c1ccc(Cl)cc1)C(O)(Cn1cncn1)c1ccccc1F` (stereo not shown) [Example 669] has a responders at 150 mg/kg ([1]; ATCC11651, 168 h, day 7) of 100%, a responders at 150 mg/kg ([1]; ATCC11651, 336 h, day 14) of 100% and a responders at 150 mg/kg ([1]; ATCC11651, 504 h, day 21) of 100%. For the same molecule, the pest or weed control at 100 ppm (Venturia inaequalis) was 100%, the pest or weed control at 100 ppm [2] was 100% and the pest or weed control at 100 ppm (Pyricularia oryzae) was 96%. The pest or weed control at 100 ppm (Rhizoctonia solani) was 100%, the pest or weed control at 100 ppm (Puccinia recondita) was 100% and the pest or weed control at 5000 g/ha (Sclerotium rolfsii) was 0%. For the same molecule, the pest or weed control at 64 g/ha (BARNYARDGRASS) was 90%, the pest or weed control at 125 g/ha (BARNYARDGRASS) was 98% and the pest or weed control at 250 g/ha (BARNYARDGRASS) was 98%. It also gave a pest or weed control at 500 g/ha (BARNYARDGRASS) of 90%, a pest or weed control at 1000 g/ha (BARNYARDGRASS) of 100% and a pest or weed control at 64 g/ha (ARROWHEAD) of 0%. For the same molecule, the pest or weed control at 125 g/ha (ARROWHEAD) was 0%, the pest or weed control at 250 g/ha (ARROWHEAD) was 0% and the pest or weed control at 500 g/ha (ARROWHEAD) was 0%. For the same molecule, the pest or weed control at 1000 g/ha (ARROWHEAD) was 0%, the pest or weed control at 64 g/ha (SCIRPUS) was 0% and the pest or weed control at 125 g/ha (SCIRPUS) was 0%. It also gave a pest or weed control at 250 g/ha (SCIRPUS) of 0%, a pest or weed control at 500 g/ha (SCIRPUS) of 0% and a pest or weed control at 1000 g/ha (SCIRPUS) of 30%. The pest or weed control at 64 g/ha (WATER PLAINTAIN) was 0%, the pest or weed control at 125 g/ha (WATER PLAINTAIN) was 0% and the pest or weed control at 250 g/ha (WATER PLAINTAIN) was 0%. It also gave a pest or weed control at 500 g/ha (WATER PLAINTAIN) of 0%, a pest or weed control at 1000 g/ha (WATER PLAINTAIN) of 0% and a pest or weed control at 64 g/ha (RICE JAP EFF) of 0%. For the same molecule, the pest or weed control at 125 g/ha (RICE JAP EFF) was 0%, the pest or weed control at 250 g/ha (RICE JAP EFF) was 0% and the pest or weed control at 500 g/ha (RICE JAP EFF) was 0%. For the same molecule, the pest or weed control at 1000 g/ha (RICE JAP EFF) was 0% and the MIC [3] was 0.8 µg/mL (≈ 2.33 µM).
